Assay results reported in patent US6350478B1, “Artemisia judaica fractionation method” (Phytotech Limited, priority 1996, dated 2002).

Tests used:
[1] = tested on: androst-4-ene 3, 17-dione metabolism; assay: Steroid metabolism (androst-4-ene 3, 17-dione metabolism) of liver cells; format: cell-based, rat; conditions: STZ diabetic rats; Extract 1 200 μg/ml, Extract 2 10-120 μg/ml, Extract 3 1 ng/ml, Insulin 1 ng/ml, Inositol 100-100 μg/ml
Experimental: Isolated hepatocytes were prepared from control animals by a modification of the double perfusior technique of Seglen (1973) involving […] animal with halothane/nitrous oxide and inserting a cannula into the hepatic portal vein. The liver was subsequently perfused first with a calcium-free buffer and then with collagenase solution. The isolated cells were freed from the connective tissue by gentle combing. Hepatocytes were suspended in Ham's F-10 nutrient solution, Williams' medium E or Krebs-Henseleit medium depending on the assay to be performed. The effects of Extract 1 on steroid metabolism in liver cells was also studied. The animals were killed by CO2 asphyxiation and the liver quickly exised and placed in ice-cold buffer (0.1M phosphate buffer, pH 7.4). The liver was homogenised using a Potter-Elvehjem homogeniser with a teflon pestle and microsomes were prepared by differential centrifugation. The microsomes were resuspended by gentle homogenisation in the same buffer. The protein content was measured by the method of Lowry using bovine serum albumin as standard and the microsomes were diluted by 10 mg protein/ml. The diluted microsomes were assayed for aniline 4-hydroxylase activity and aminopyrine N-demethylase activity (results not shown) and for androst-4-ene 3, 17-dione metabolism using published methodology. […]

Glycogen phosphorylase a = Glycogen phosphorylase a activity in isolated rat hepatocytes (insulin-like activity); format: cell-based; conditions: for Activity of liver cells: Glycogen Phosphorylase a activity: isolated rat hepatocytes, Extract 1 200 μg/ml, Extract 3 1 ng/ml, Insulin 1 ng/ml, Inositol 100-100 μg/ml
Experimental: (§1) Isolated hepatocytes were prepared from control animals by a modification of the double perfusior technique of Seglen (1973) involving anaesthetising he animal with halothane/nitrous oxide and inserting a cannula into the hepatic portal vein. The liver was subsequently perfused first with a calcium-free buffer and then with collagenase solution. The isolated cells were freed from the connective tissue by gentle combing. Hepatocytes were suspended in Ham's F-10 nutrient solution, Williams' medium E or Krebs-Henseleit medium depending on the assay to be performed.
(§2) Glycogen phosphorylase a activity, as an index of insulin-like or glucagon antagonist activity can be measured using falling logarithmic concentrations of analyte in the presence or absence of insulin or glucagon.
Isolated hepatocytes, suspended in Krebs-Henseleit solution at a concentration of 10^6 cells/ml, were treated with Artemisia extract at a concentration of […] (final concentration) in the presence or absence of insulin (10^−7M) or glucagon ([…]) for 2 minutes in a shaking water bath at 37° C. under constant oxygenation with 100% oxygen. The cells were subsequently centrifuged for 30s in a Beckman Microfuge and the pellet resuspended in MOPS buffer (pH 6.5) containing sodium fluoride (12.6 g/l), EDTA (1.85 g/l) and a dithiothreitol (0.31 g/l) at 10^6 cells/ml. The suspended cells were homogenised in a Potter-Elvehjem homogeniser and the homogenate centrifuged at 300×g in a Damon-IEC refrigerated centrifuge at 4° C. for 10 minutes. The resultant supernatant was used to assay for glycogen phosphorylase a activity as described by Preiksatis & Kunos (1979). This technique involves the measurement of [^14C]glycose-1-phosphate to glycogen conversion in the presence of caffeine to inhibit glycogen phosphorylase b activity.
Each fraction was carefully evaporated to dryness and weighed in a tared vessel. The dried samples were redissolved in methanol (100 μl) and (100 μl of H2O for the void volume) and subjected to chromatography. […]

[2] = dietary supplementation; The Lancet May 20, 1989; cited from earlier work
STZ Diabetic Rats = assay: Antidiabetic activity in STZ diabetic rats; format: in vivo, rat; conditions: Extract 2 10-120 μg/ml po
Experimental: This extract, referred to as Extract 1 or Fraction 1, was tested in rats rendered diabetic by administration of Streptotozocin (STZ), and in in vitro tests for insulin-like activity. Toxicity was tested in a bacterial (Ames) mutagenicity test.
Urine was tested for the presence of ketones and glucose using Keto-Diabur Test 5000 sticks (Boehringer Mannheim, Lewes, UK). Glucose was assayed by the glucose oxidase method as described by Trinder (1969) using a kit supplied by the Sigma Chemical Co Ltd, Pool, UK)
The animals were monitored for 7 day periods before being made diabetic, after induction of diabetes by administration of STZ and during Artemisia treatment, so that each animal acted as its own control. Food intake rose after induction of diabetes and fell again following treatment with Artemisia.

glucagon response = assay: Glycogen phosphorylase a activity in isolated hepatocytes in the presence of glucagon (glucagon antagonist activity); format: cell-based, rat; conditions: Extract 1 200 μg/ml, Extract 3 1 ng/ml, Insulin 1 ng/ml
Experimental: as §1, §2
Isolated hepatocytes, suspended in Krebs-Henseleit solution at a concentration of 10^6 cells/ml, were treated with Artemisia extract at a concentration of […] (final concentration) in the presence or absence of insulin (10^−7M) or glucagon ([…]) for 2 minutes in a shaking water bath at 37° C. under constant oxygenation with 100% oxygen. The cells were subsequently centrifuged for 30s in a Beckman Microfuge and the pellet resuspended in MOPS buffer (pH 6.5) containing sodium fluoride (12.6 g/l), EDTA (1.85 g/l) and a dithiothreitol (0.31 g/l) at 10^6 cells/ml. […]

[3] = tested on: Escherichia coli and Salmonella typhimurium; assay: Ames bacterial mutagenicity test, liver fraction supplemented; format: cell-based; conditions: Ames test with liver fraction
From the text: Escherichia coli and Salmonella typhimurium were used in the Ames test (B. N. Ames, J. McCann, E. Yamasaki—Mutation Res. 31 (1975) 347). The bacteria used carry a mutation which makes them dependent upon the presence of a specific nutrient medium for growth. If the test substance added to the growth medium of a plate of such bacteria is mutagenic, then a small proportion of the mutations it induces will cause the nutrient dependency mutation to revert, so that the bacteria will synthesise the nutrient and grow even in its absence. Observing whether colonies grow on nutrient deficient plates in the presence and absence of the test substance will thus reveal whether the substance is mutagenic and can give a measure of the mutagenicity of the substance.

[4] = Extract 1 200 μg/ml po, Extract 3 1 ng/ml po, Insulin 1 ng/ml sc

| Compound | Activity of liver cells: Steroid metabolism [1] | Activity of liver cells: Glycogen Phosphorylase a activity (Glycogen phosphorylase a) | activity in the in vitro liver cell system (Glycogen phosphorylase a; levels of up to 1 mg/ml) | improvement of nerve function in the management of complications of diabetes mellitus [2] | Excessive food intake (STZ Diabetic Rats; Extract 1 200 μg/ml po (drinking water), Extract 3 1 ng/ml po, Insulin 1 ng/ml sc) | Diuresis (STZ Diabetic Rats; Extract 1 200 μg/ml po) | Glucosuria (STZ Diabetic Rats; [4]) | Ketonuria (STZ Diabetic Rats; [4]) | Weight gain (STZ Diabetic Rats; [4]) | Activity of liver cells: Effect on glucagon response (glucagon response) | Bacterial mutagenicity [3] |
| --- | --- | --- | --- | --- | --- | --- | --- | --- | --- | --- | --- |
| O[C@H]1[C@H](O)[C@@H](O)[C@H](O)[C@@H](O)[C@H]1O [Inositol] | negative | negative | inactive | no evidence | – | – | – | – | – | – | – |
| Insulin | restored * | decreased *** | – | – | reversed | reduced | reduced | reduced | normalised | reversed *** | negative |
